Drawing on ChEMBL document CHEMBL4421722, “Inhibitors of protein prenyltransferases” (2013), this text covers IC50, GI50 and Activity for 52 compounds.

The structures appear in SMILES notation.

The nature of assay [1]: Inhibition of rat recombinant geranylgeranyltransferase type I expressed in Escherichia coli assessed as reduction in geranylgeranylation of RhoA incubated for 30 mins in presence of [3H]GGPP by scintillation counting assay relative to control.
The next assay relates to K562. As to the kind of experiment: Antiproliferative activity against human K562 cells assessed as inhibition of cell proliferation incubated for 72 hrs by CCK8 assay. Format: functional, cell-based. The following applies: K562, 72 h.
For another assay, the system named is Jurkat. As to the kind of experiment: Antiproliferative activity against human Jurkat cells assessed as inhibition of cell proliferation incubated for 72 hrs by CCK8 assay. Type of assay: functional, cell-based.
Assay [2] is filed under the species Rattus norvegicus. As to the kind of experiment: Inhibition of rat recombinant geranylgeranyltransferase type I expressed in Escherichia coli assessed as residual enzyme activity for geranylgeranylation of K-Ras4B at 50 uM incubated for 30 mins in presence of [3H]GGPP by scintillation counting assay relative to control.
Assay [3] is filed under the species Rattus norvegicus. As to the kind of experiment: Inhibition of rat recombinant geranylgeranyltransferase type I expressed in Escherichia coli assessed as residual enzyme activity for geranylgeranylation of RhoA at 50 uM incubated for 30 mins in presence of [3H]GGPP by scintillation counting assay relative to control.

The term IC50 denotes the concentration that gives 50% inhibition. With `O=C(O)C1=CC[C@@H](c2cccc(Cl)c2)N(S(=O)(=O)c2ccc(Br)cc2)[C@H]1c1cccc(Br)c1`, in assay [1], the IC50 fell in the range of 0.155 to 0.169 µM. With `O=C(O)C1=CC[C@@H](c2cccc(Br)c2)N(S(=O)(=O)c2ccc(Cl)cc2)[C@H]1c1cccc(Cl)c1`, the IC50 in assay [1] lay within 0.125 to 0.154 µM. In general, GI50 refers to the concentration giving 50% growth inhibition. For the compound `CC(C)C[C@H](NC(=O)C1=CC[C@@H](c2cccc(Br)c2)N(S(=O)(=O)c2ccc(F)cc2)[C@H]1c1cccc(Cl)c1)C(N)=O`, in assay [1], the IC50 was in the range of 6.9 to 32.9 µM. Besides, the results for the GI50 in the assay with K562 and in the assay on Jurkat were 1.7 to 10.2 µM and 0.32 to 1.76 µM, respectively. `CC(C)(C)[C@@H]1C=C(C(=O)N[C@@H](Cc2ccccc2)C(N)=O)[C@H](c2ccc(Cl)c(Cl)c2)N1S(=O)(=O)c1c(Cl)cccc1Cl`: in assay [1], the concentration for half-maximal inhibition (IC50) is over 50 µM. Also, the GI50 with Jurkat is 4.91 to 5.28 µM. `CC(C)C[C@H](NC(=O)C1=CC[C@@H](c2cccc(Cl)c2)N(S(=O)(=O)c2ccc(Br)cc2)[C@H]1c1cccc(Br)c1)C(=O)O`: the IC50 in assay [1] was 0.04 µM. As for `COC(=O)[C@H](Cc1ccccc1)NC(=O)C1=C[C@@H](C(C)(C)C)N(S(=O)(=O)c2ccccc2C)[C@H]1c1ccc(Cl)cc1`, the results for the half-inhibitory concentration (IC50) (in assay [1]; in the assay with K562) were over 50 µM and 10.5 µM, respectively. The GI50 lay within 14 to 17 µM in the assay with K562 and 10.5 to 19 µM in the assay with Jurkat. Turning to `CC(C)(C)[C@@H]1C=C(C(=O)O)[C@H](c2ccc(Cl)c(Cl)c2)N1S(=O)(=O)C(C)(C)C`, the IC50 in assay [1] came out at 4.4 µM. Still for that read-out and setting: the value for `O=C(O)C1=CC[C@@H](c2cccc(Br)c2)N(S(=O)(=O)c2ccc(Br)cc2)[C@H]1c1cccc(Cl)c1` was 0.529 µM.

As to `O=C(O)C1=CC[C@@H](c2ccc(Br)cc2)N(S(=O)(=O)c2ccc(Br)cc2)[C@H]1c1cccc(Cl)c1`, the IC50 in assay [1] worked out at 0.398 µM. The same measure, in the same setting: the value for `CC(C)C[C@H](NC(=O)C1=CC[C@@H](c2cccc(Cl)c2)N(S(=O)(=O)c2ccc(Br)cc2)[C@H]1c1cccc(Cl)c1)C(N)=O` was over 20 µM; that for `Cc1cccc([C@H]2C(C(=O)O)=CC[C@@H](c3cccc(Br)c3)N2S(=O)(=O)c2ccc(Cl)cc2)c1` was 0.256 µM; that for `O=C(O)C1=CC[C@@H](c2cccc(Br)c2)N(S(=O)(=O)c2ccc(Cl)cc2)[C@H]1c1cccc(F)c1` was 0.841 µM. On the same count and under the same terms, the value for `CC(C)(C)[C@@H]1C=C(C(=O)N[C@@H](Cc2ccccc2)C(N)=O)[C@H](c2ccc(Cl)c(Cl)c2)N1S(=O)(=O)c1ccccc1Br` was over 20 µM. Regarding `CC(C)(C)[C@@H]1C=C(C(=O)N[C@@H](Cc2ccccc2)C(N)=O)[C@H](c2ccc(Cl)c(Cl)c2)N1S(=O)(=O)C(C)(C)C`, the 50% inhibitory concentration (IC50) in assay [1] is 2.7 to 50 µM. Moreover, the results for the GI50 in the assay with K562 and with Jurkat were 4.22 to 5.9 µM and 4.57 to 5.91 µM, respectively. In the case of `O=C(O)C1=CC[C@@H](c2cccc(Cl)c2)N(S(=O)(=O)c2ccc(Cl)cc2)[C@H]1c1cccc(Cl)c1`, in assay [1], the IC50 stood at 0.241 µM.

For the compound `O=C(O)C1=CC[C@@H](c2cccc(Br)c2)N(S(=O)(=O)c2ccc(Br)cc2)[C@H]1c1cccc(Br)c1`, in assay [1], the IC50 was 0.525 µM. Regarding `Cc1cccc([C@@H]2CC=C(C(=O)O)[C@H](c3cccc(Br)c3)N2S(=O)(=O)c2ccc(Br)cc2)c1`, the IC50 in assay [1] was 0.33 µM. On to `O=C(O)C1=CC[C@@H](c2cccc(Br)c2)N(S(=O)(=O)c2ccc(F)cc2)[C@H]1c1cccc(Cl)c1`, for which the IC50 in assay [1] was found to be 0.212 µM. For the compound `COC(=O)[C@H](CC(C)C)NC(=O)C1=CC[C@@H](c2ccc(Cl)cc2)N(S(=O)(=O)c2ccccc2C)[C@H]1c1cccc(Cl)c1`, the half-maximal inhibitory concentration (IC50) in assay [1] was in the range of 20 to 50 µM. In the assay with Jurkat, the GI50 fell in the range of 3.53 to 6.1 µM. For `O=C(O)C1=CC[C@@H](c2ccc(Cl)c(Cl)c2)N(S(=O)(=O)c2ccc(Cl)cc2)[C@H]1c1cccc(Cl)c1`, the IC50 in assay [1] was determined as 0.31 µM. On to `Cc1ccccc1S(=O)(=O)N1[C@@H](c2cccc(Cl)c2)C(C(N)=O)=CC[C@H]1c1ccc(Cl)cc1`, for which, in assay [1], the IC50 was over 20 µM. Also, in the assay on Jurkat, the GI50 came to 5.36 µM. For `CCOC(=O)C1=C[C@@H](C(C)(C)C)N(S(=O)(=O)c2ccccc2C)[C@H]1c1ccc(Cl)cc1`, the IC50 in the assay on K562 is over 25 µM.

Take `COC(=O)[C@H](Cc1ccccc1)NC(=O)COCC1=C[C@@H](C(C)(C)C)N(S(=O)(=O)c2ccccc2C)[C@H]1c1ccc(Cl)cc1`: the IC50 was 2.1 to 20 µM in assay [1] and 5.8 to 6.01 µM with K562. Besides, the GI50 in the assay on Jurkat lay in the range of 3.51 to 5.1 µM.

For `O=C(O)C1=CC[C@@H](c2cccc(Cl)c2)N(S(=O)(=O)c2ccc(Br)cc2)[C@H]1c1cccc(Cl)c1`, the IC50 in assay [1] was in the range of 0.086 to 0.0871 µM. On to `Cc1ccccc1S(=O)(=O)N1[C@@H](c2ccc(Cl)cc2)C(C(N)=O)=C[C@H]1C(C)(C)C`, for which the 50% inhibitory concentration (IC50) in the assay on K562 worked out at 11 µM.

With `CC(C)(C)[C@@H]1C=C(C(=O)O)[C@H](c2ccc(Cl)c(Cl)c2)N1S(=O)(=O)c1c(Cl)cccc1Cl`, the half-maximal inhibitory concentration (IC50) in assay [1] was found to be 4.4 µM. Same read-out and setting: the value for `O=C(N[C@@H](Cc1ccccc1)C(=O)O)C1=CC[C@@H](c2cccc(Cl)c2)N(S(=O)(=O)c2ccc(Br)cc2)[C@H]1c1cccc(Br)c1` was 0.032 µM; that for `NC(=O)[C@H](Cc1ccccc1)NC(=O)C1=CC[C@@H](c2cccc(Cl)c2)N(S(=O)(=O)c2ccc(Cl)cc2)[C@H]1c1cccc(Cl)c1` was 0.6 µM.

For the compound `NC(=O)[C@H](Cc1ccccc1)NC(=O)C1=CC[C@@H](c2cccc(Cl)c2)N(S(=O)(=O)c2ccc(Br)cc2)[C@H]1c1cccc(Cl)c1`, the 50% inhibitory concentration (IC50) in assay [1] was 1.3 to 20 µM. Besides, the figures for the concentration for 50% growth inhibition (GI50) with K562 and in the assay on Jurkat were 7.69 to 10.3 µM and 3.57 to 4.86 µM, respectively. Consider `Cc1ccc(S(=O)(=O)N2C[C@@H](C(=O)O)[C@H](SCCc3ccccc3)C[C@H]2c2cccc(Br)c2)cc1`, for which the Activity was 4.7 to 7.3% in the assay listed under Rattus norvegicus [2] and 3.1% in the assay listed under Rattus norvegicus [3]. The like results for `Cc1ccc(S(=O)(=O)N2C[C@@H](C(=O)O)[C@H](Sc3ccc(Cl)cc3)C[C@H]2c2ccc(Cl)cc2)cc1` were, in that order, 52.1% and 4.9%. In the same order, the values of `O=C(O)C1=CC[C@@H](c2ccc(Cl)cc2)N(S(=O)(=O)c2ccc(Cl)cc2)[C@H]1c1cccc(Cl)c1` are 33.1% and 26.7%. As to `Cc1ccccc1S(=O)(=O)N1[C@@H](c2cccc(Cl)c2)C(CO)=CC[C@H]1c1ccc(Cl)cc1`, the IC50 in assay [1] is over 100 µM. Moreover, the 50% growth inhibitory concentration (GI50) was 5.8 µM with K562 and 7.5 µM in the assay with Jurkat. Take `C=CCS[C@H]1[C@@H](C(=O)O)[C@H](c2ccc(Br)cc2)N(S(=O)(=O)c2ccc(C)cc2)[C@@H]1CCC`: the Activity is 9.8% in the assay listed under Rattus norvegicus [2] and 7.5% in the assay listed under Rattus norvegicus [3]. For `Cc1ccc(S(=O)(=O)N2[C@@H](c3cccc(Cl)c3)C(C(=O)O)=CC[C@H]2c2cccc(Cl)c2)cc1`, the Activity is 43.7 to 43.8% in the assay listed under Rattus norvegicus [2] and 6% in the assay filed under Rattus norvegicus [3]. On to `Cc1ccc([C@@H]2C[C@@H](SCc3ccc(Cl)cc3)[C@H](C(=O)O)CN2S(=O)(=O)c2ccccc2C)cc1`, for which the figures for the Activity in the assay filed under Rattus norvegicus [2] and in the assay listed under Rattus norvegicus [3] were 19.6 to 20.4% and 10.5%, respectively.

Consider `CC(C)CCS[C@H]1[C@@H](C(=O)O)[C@H](c2ccc(Cl)cc2)N(S(=O)(=O)c2ccccc2)[C@@H]1C(C)C`, for which the Activity worked out at 28.1% in the assay listed under Rattus norvegicus [2] and 5.9% in the assay listed under Rattus norvegicus [3]. In the same order, the values of `Cc1ccc(S(=O)(=O)N2[C@H](CC3CCCC3)[C@@H](SCCC(=O)OC(C)(C)C)[C@@H](C(=O)O)[C@@H]2c2ccc(Cl)c(Cl)c2)cc1` are 16.1% and 7.3%. `NC(=O)[C@H](Cc1ccccc1)NC(=O)C1=CC[C@@H](c2cccc(Cl)c2)N(S(=O)(=O)c2ccc(Br)cc2)[C@H]1c1cccc(Br)c1`: in assay [1], the half-maximal inhibitory concentration (IC50) was over 20 µM. The same measure, in the same setting: for `NC(=O)[C@H](Cc1ccccc1)NC(=O)C1=CC[C@@H](c2cccc(Br)c2)N(S(=O)(=O)c2ccc(Cl)cc2)[C@H]1c1cccc(Cl)c1` the value was 0.3 to 0.45 µM. Consider `COc1ccc([C@@H]2C[C@@H](SCCc3ccccc3)[C@H](C(=O)O)CN2S(=O)(=O)c2ccccc2C)cc1`, for which the Activity in the assay listed under Rattus norvegicus [2] is 15.2 to 19.5%; in the assay listed under Rattus norvegicus [3], 6%. On to `Cc1ccccc1S(=O)(=O)N1[C@@H](c2cccc(F)c2)C(C(=O)O)=CC[C@H]1c1ccc(Cl)cc1`, for which the Activity in the assay filed under Rattus norvegicus [2] is 5.4 to 13.4%; in the assay filed under Rattus norvegicus [3], 3%.

As to `CCC[C@@H]1[C@@H](SCCC(=O)OC(C)(C)C)[C@@H](C(=O)O)[C@H](c2ccc(Cl)cc2)N1S(=O)(=O)c1ccc(Cl)cc1`, the Activity in the assay filed under Rattus norvegicus [2] is 21.7%; in the assay filed under Rattus norvegicus [3] it was 9.2%.

As for `CC[C@@H]1[C@@H](SCCC(=O)OC(C)(C)C)[C@@H](C(=O)O)[C@H](c2ccc(Cl)c(Cl)c2)N1S(=O)(=O)c1ccc(C)cc1`, the Activity in the assay filed under Rattus norvegicus [2] is 27.2%; in the assay listed under Rattus norvegicus [3], 7.6%. The like results for `COc1ccc([C@@H]2C[C@@H](SCc3ccccc3)[C@H](C(=O)O)CN2S(=O)(=O)c2ccc(Cl)cc2)cc1` were, in that order, 25.9 to 28.7% and 11.9%. As for `CCCCS[C@@H]1C[C@@H](c2cccc(Br)c2)N(S(=O)(=O)c2ccc(C)cc2)C[C@H]1C(=O)O`, the Activity in the assay filed under Rattus norvegicus [2] was 5.9 to 9%; in the assay filed under Rattus norvegicus [3] it was -1.5%.

For `C=CCS[C@H]1[C@@H](C(=O)O)[C@H](c2ccc(C#N)cc2)N(S(=O)(=O)c2ccc(C)cc2)[C@@H]1C(C)C`, the Activity in the assay listed under Rattus norvegicus [2] came out at 23.1%; in the assay listed under Rattus norvegicus [3] it was 9.3%.

On to `Cc1ccc(S(=O)(=O)N2[C@@H](c3cccc(Cl)c3)C(C(=O)O)=CC[C@H]2c2cccc(Br)c2)cc1`, for which the Activity in the assay listed under Rattus norvegicus [2] is 9.8 to 24.4%; in the assay listed under Rattus norvegicus [3], 7.9%.

Turning to `C=CCS[C@H]1[C@@H](C(=O)O)[C@H](c2ccc(Cl)c(Cl)c2)N(S(=O)(=O)c2ccc(C)cc2)[C@@H]1CCCC`, the Activity in the assay listed under Rattus norvegicus [2] worked out at 21.4%; in the assay listed under Rattus norvegicus [3], 9.6%. In the same order, the values of `Cc1ccc(S(=O)(=O)N2[C@@H](c3cccc(Br)c3)C(C(=O)O)=CC[C@H]2c2cccc(Br)c2)cc1` are 9.4 to 15.2% and 3.7%. The like results for `CCCCCS[C@H]1[C@@H](C(=O)O)[C@H](c2cccc(F)c2)N(S(=O)(=O)c2ccc(C)cc2)[C@@H]1CCCC` were, in that order, 23.5% and 7.1%. The like results for `COc1ccc([C@@H]2C[C@@H](SCCc3ccccc3)[C@H](C(=O)O)CN2S(=O)(=O)c2ccccc2)cc1` were, in that order, 24.1 to 28.3% and 9.6%.
